Tests used:
VfmE = target: T1, VfmE (Dickeya dadantii, UniProt E0SMH0); assay: ELISA with biotinylated c-di-GMP, competed by unlabelled c-di-GMP; type: binding; conditions: labelled compound (25 nM biotinylated c-di-GMP, Biolog); competition with 10 uL of 250 nM unlabelled c-di-GMP; PBS pH 7.4, room temperature; plate coated with lysate protein
T1 construct: full length, N-terminal 6xHis-MBP fusion (pMAL-c6T) kept, expressed in E. coli NEBExpress, soluble lysate coated on plate

YcgR from D. dadantii = target: T2, YcgR from D. dadantii (Dickeya dadantii, UniProt E0SAQ7); assay: as above; type: binding; conditions: labelled compound (25 nM biotinylated c-di-GMP, Biolog); competition with 10 uL of 250 nM unlabelled c-di-GMP; PBS pH 7.4, room temperature; plate coated with lysate protein; positive control protein
T2 construct: 6xHis-tagged, recombinant, soluble lysate coated on plate
T2 sequence (E0SAQ7 entry or part of it): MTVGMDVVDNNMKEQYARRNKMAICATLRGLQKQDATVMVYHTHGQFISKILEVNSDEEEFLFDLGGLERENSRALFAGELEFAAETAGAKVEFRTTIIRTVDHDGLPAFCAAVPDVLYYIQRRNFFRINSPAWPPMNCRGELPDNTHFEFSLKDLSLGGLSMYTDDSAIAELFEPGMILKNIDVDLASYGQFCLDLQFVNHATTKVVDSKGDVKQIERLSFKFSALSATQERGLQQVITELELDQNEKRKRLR

T1 sequence (E0SMH0 entry or part of it): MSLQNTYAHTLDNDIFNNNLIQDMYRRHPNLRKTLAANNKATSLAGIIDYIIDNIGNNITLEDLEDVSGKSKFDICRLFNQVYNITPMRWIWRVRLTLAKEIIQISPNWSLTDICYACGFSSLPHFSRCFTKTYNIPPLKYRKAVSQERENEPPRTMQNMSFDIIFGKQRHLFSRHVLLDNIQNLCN

Nc1nc2c(ncn2[C@@H]2O[C@@H]3COP(=O)(O)O[C@H]4[C@@H](O)[C@H](n5cnc6c(=O)[nH]c(N)nc65)O[C@@H]4COP(=O)(O)O[C@H]3[C@H]2O)c(=O)[nH]1 [c-di-GMP]
ELISA with biotinylated c-di-GMP, competed by unlabelled c-di-GMP (VfmE): VfmE binds c-di-GMP with specificity comparable to that of a known c-di-GMP effector, YcgR | ELISA with biotinylated c-di-GMP, competed by unlabelled c-di-GMP (YcgR from D. dadantii): We observed a reduced absorbance in both VfmE- and YcgR-treated wells
